Molecular target: T1, human soluble epoxide hydrolase (sEH) (Homo sapiens, UniProt P34913)
T1 sequence (P34913 1-555): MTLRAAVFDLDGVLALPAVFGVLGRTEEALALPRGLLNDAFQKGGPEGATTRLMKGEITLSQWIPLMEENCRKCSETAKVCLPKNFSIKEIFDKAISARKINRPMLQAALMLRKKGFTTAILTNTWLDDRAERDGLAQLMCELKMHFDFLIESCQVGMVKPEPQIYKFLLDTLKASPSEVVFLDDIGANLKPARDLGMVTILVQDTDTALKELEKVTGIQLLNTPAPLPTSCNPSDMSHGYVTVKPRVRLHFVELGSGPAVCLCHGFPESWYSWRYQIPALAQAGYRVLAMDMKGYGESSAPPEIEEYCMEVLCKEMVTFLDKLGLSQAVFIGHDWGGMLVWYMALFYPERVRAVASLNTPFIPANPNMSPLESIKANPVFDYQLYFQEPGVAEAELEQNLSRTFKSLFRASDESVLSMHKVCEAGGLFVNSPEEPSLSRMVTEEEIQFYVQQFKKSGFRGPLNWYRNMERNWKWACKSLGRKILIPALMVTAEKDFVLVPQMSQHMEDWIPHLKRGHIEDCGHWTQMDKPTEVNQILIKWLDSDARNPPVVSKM
Test: radiometric assay with [3H]-tDPPO substrate
Format: biochemical

IC50: 20 ± 0.5 nM
Substance: UC2389

From publication PMC5172606 (Archives of biochemistry and biophysics, 2016)
